Assay results as given in PubChem BioAssay (NCI).
Where “and” joins values, the source holds several entries; their conditions need not be identical. Equal entries are not always repeated.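 Tested at 5 concentrations; 48 h exposure; 96-well plates; endpoints linearly interpolated, else capped at highest concentration. Here, GI50 denotes the concentration required for 50% inhibition of growth. TGI marks complete inhibition of growth.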

What was measured:
Experiment in all cases: DTP human tumour cell line panel, 48 h
SK-MEL-28 melanoma = tested on: SK-MEL-28 melanoma
UACC-62 melanoma = tested on: UACC-62 melanoma
MALME-3M melanoma = tested on: MALME-3M melanoma
A549 NSCLC = tested on: A549 NSCLC
SK-MEL-5 melanoma = tested on: SK-MEL-5 melanoma
MDA-MB-231 breast = tested on: MDA-MB-231 breast
HL-60(TB) leukemia = tested on: HL-60(TB) leukemia
K-562 leukemia = tested on: K-562 leukemia
HCT-15 colon = tested on: HCT-15 colon
SK-OV-3 ovarian = tested on: SK-OV-3 ovarian
M14 melanoma = tested on: M14 melanoma
SNB-75 CNS = tested on: SNB-75 CNS
SF-539 CNS = tested on: SF-539 CNS
OVCAR-5 ovarian = tested on: OVCAR-5 ovarian
NCI-H226 lung = tested on: NCI-H226 lung
NCI-H522 lung = tested on: NCI-H522 lung
HCT-116 colon = tested on: HCT-116 colon
SK-MEL-2 melanoma = tested on: SK-MEL-2 melanoma
SNB-19 CNS = tested on: SNB-19 CNS

| SMILES | TGI (SK-MEL-28 melanoma) [µM] | TGI (UACC-62 melanoma) [µM] | TGI (MALME-3M melanoma) [µM] | TGI (A549 NSCLC) [µM] | TGI (SK-MEL-5 melanoma) [µM] | TGI (MDA-MB-231 breast) [µM] | TGI (HL-60(TB) leukemia) [µM] | TGI (K-562 leukemia) [µM] | TGI (HCT-15 colon) [µM] | TGI (SK-OV-3 ovarian) [µM] | TGI (M14 melanoma) [µM] | TGI (SNB-75 CNS) [µM] | TGI (SF-539 CNS) [µM] | TGI (OVCAR-5 ovarian) [µM] | TGI (NCI-H226 lung) [µM] | TGI (NCI-H522 lung) [µM] | TGI (HCT-116 colon) [µM] | TGI (SK-MEL-2 melanoma) [µM] | TGI (SNB-19 CNS) [µM] | GI50 (MDA-MB-231 breast) |
| --- | --- | --- | --- | --- | --- | --- | --- | --- | --- | --- | --- | --- | --- | --- | --- | --- | --- | --- | --- | --- |
| COc1ccccc1Nc1nc(NNC(=O)Cc2ccccc2)nc(NNC(=O)c2ccncc2)n1 | > 10 | > 10 | > 10 | > 10 | > 10 | > 10 | > 10 | > 10 | > 10 | > 10 | > 10 | > 10 | > 10 | – | – | – | – | – | – | – |
| Cc1ccc(-c2n[nH]c(=O)[nH]2)cc1[N+](=O)[O-] | > 100 | > 100 | > 100 | > 100 | > 100 | – | > 100 | > 100 | > 100 | – | > 100 | > 100 | > 100 | > 100 | > 100 | > 100 | > 100 | > 100 | > 100 | – |
| COc1cc2c(cc1OC)-c1c3c(cc4c1[C@@H](C2)N(C)CC4)OCO3 | 24.9 | 20.2 | 20.1 | 32.2 | 19.3 | – | 29.9 | 33.9 | 40.8 | 50.6 | – | 23.9 | 16.5 | 37.3 | 23 | 21.1 | 36.6 | 22 | 59.9 | – |
| Cc1cc(C)n(CN(Cn2nc(C)cc2C)C2CCCCC2)n1 | 42.5 | 41.7 | 51.9 | > 100 | > 100 | 64.2 | – | – | 42.6 | > 100 | 36.8 | 76.8 | 29.1 | 53.8 | – | 43.8 | 45.6 | 36.7 | > 100 | – |
| Cc1c(-c2ccccc2)c(C#N)c2nnc(C(N)=O)c(N)n12 | > 100 | > 100 | > 100 | > 100 | > 100 | > 100 | > 100 | > 100 | > 100 | > 100 | > 100 | – | > 100 | > 100 | – | > 100 | > 100 | > 100 | > 100 | – |
| CC(=O)O[C@H]1C(=O)[C@@]2(C)[C@H]([C@H](OC(=O)c3ccccc3)[C@]3(O)C[C@H](OC(=O)[C@H](O)[C@@H](NC(=O)CC(C)(C)C)c4ccccc4)C(C)=C1C3(C)C)C1(OC(C)=O)CO[C@@H]1C[C@@H]2O (some centres undefined) | > 10 | > 10 | – | > 10 | > 10 | > 10 | – | > 10 | > 5.78 | > 10 | > 10 | 0.0154 | 0.00453 | > 2.93 | > 5.23 | – | > 3.34 | > 10 | > 10 | – |
| CC1(C)C2CCC3(C2)CS(=O)(=O)N2OC231 (centres undefined) | 44.7 | 31.8 | 28.8 | > 100 | 44.8 | – | 43.3 | 54.6 | 30.1 | > 100 | 30 | 36.5 | 33.6 | 71.9 | – | 26.9 | > 100 | 39.3 | > 100 | – |
| O=c1[nH]c(N/N=C\C(O)C(O)C(O)CO)nc2ccccc12 (centres undefined) | > 100 | > 100 | – | > 100 | > 100 | > 100 | > 100 | > 100 | > 100 | > 100 | > 100 | > 100 | > 100 | > 100 | > 100 | – | > 100 | > 100 | > 100 | > 100 µM and 47.7 µM |
| CCCCOCn1c(=O)[nH]c(=O)c2cc(Br)ccc21 | > 100 | > 100 | – | > 100 | > 100 | > 100 | > 100 | > 100 | > 100 | > 100 | > 100 | > 100 | > 100 | > 100 | 46.9 | – | > 100 | > 100 | > 100 | – |
| Cn1cnc2c(sc3nc4ccccc4n32)c1=N | > 100 | > 100 | > 100 | > 100 | > 100 | > 100 | > 100 | – | > 100 | > 100 | > 100 | 73.8 | > 100 | > 100 | > 100 | – | > 100 | > 100 | > 100 | – |
| O=C(OC[C@H]1O[C@@H](OC(=O)c2cc(O)c(O)c(O)c2)[C@H](OC(=O)c2cc(O)c(O)c(O)c2)[C@@H](OC(=O)c2cc(O)c(O)c(O)c2)[C@@H]1OC(=O)c1cc(O)c(O)c(O)c1)c1cc(O)c(O)c(O)c1 | 56.7 | 6.44 | – | 19.8 | 24.2 | – | > 100 | > 100 | > 100 | > 100 | 24.4 | – | 16.3 | 52.5 | 7.98 | 14.2 | 16.8 | 26.4 | > 100 | – |
| Cc1ccc(N=Nc2c(C)c(C#N)c(=S)n(C3OC(CO)C(O)C(O)C3O)c2-c2ccccc2)cc1 (centres undefined) | 43 | 32 | 47.7 | > 100 | 23.2 | > 100 | > 100 | 83.3 | 63.7 | > 100 | 30.4 | 55.2 | 48.9 | 55.9 | – | – | 29 | 45.6 | 48.1 | – |
| OC12CC/C(=N/OCc3ccccc3)CC1c1ccccc12 (centres undefined) | > 100 | > 100 | > 100 | > 100 | > 100 | – | > 100 | > 100 | > 100 | > 100 | > 100 | > 100 | > 100 | > 100 | > 100 | > 100 | > 100 | > 100 | > 100 | – |
| CN(C)CCCOCCn1c2c(c3ccccc31)CCCC2 | 30.2 | 31.1 | 32.5 | 31.8 | 25.3 | 26.6 | 20.7 | 58.5 | 30.5 | – | 32.1 | 57.9 | 33.2 | 30.5 | 63.5 | – | 28.8 | 26.5 | – | – |
| O=c1[nH]nc(Cc2ccccc2)n1-n1cnnc1 | > 100 | > 100 | – | > 100 | > 100 | > 100 | – | > 100 | > 100 | > 100 | > 100 | > 100 | > 100 | > 100 | – | > 100 | > 100 | > 100 | > 100 | – |
| N#CC(NNC(=O)c1ccccc1O)c1cccc(O)c1 (centres undefined) | > 100 | – | > 100 | > 100 | > 100 | – | 73.9 | > 100 | > 100 | > 100 | > 100 | > 100 | 18.5 | > 100 | 88.5 | 98.5 | > 100 | > 100 | – | – |
| CSC1=NS(=O)(=O)c2cc(C(=O)NN(C)C(=O)c3cc4c(cc3Cl)SC(SC)=NS4(=O)=O)c(Cl)cc2S1 | > 10 | – | > 10 | > 10 | > 10 | – | > 10 | > 10 | > 10 | > 10 | > 10 | > 10 | > 10 | > 10 | > 10 | > 10 | > 10 | > 10 | > 10 | – |
| CC(C)N(C)C(=O)C12C3C4C1C1C2C3C41C#N (centres undefined) | > 100 | > 100 | – | > 100 | > 100 | > 100 | > 100 | > 100 | > 100 | – | > 100 | > 100 | > 100 | > 100 | – | > 100 | > 100 | > 100 | > 100 | – |
| S=C(S)NCC1CCC(CNC(=S)S)CC1 (centres undefined) | > 100 | > 100 | 63.1 | > 100 | > 100 | 70.1 | > 100 | > 100 | 65 | > 100 | > 100 | > 100 | > 100 | > 100 | – | 28 | 42.5 | 58.3 | > 100 | – |
| CSc1c(C#N)c2n(c3ccccc13)c1ccccc1[n+]2C | > 100 | 47.1 | 34.6 | 81.8 | 26.7 | 60.1 | 56.9 | – | > 100 | – | > 100 | > 100 | 78.8 | > 100 | – | 31.5 | 40.8 | 39.1 | – | – |
| c1ccc2c(c1)nc1n2CCSC1 | > 100 | > 100 | – | > 100 | > 100 | > 100 | > 100 | > 100 | > 100 | > 100 | > 100 | > 100 | > 100 | > 100 | – | – | > 100 | > 100 | > 100 | – |
| CC(C)CNC(=O)Cn1c(-c2ccccc2)cc2ccccc21 | > 100 | > 100 | > 100 | > 100 | > 100 | – | > 100 | > 100 | > 100 | > 100 | > 100 | > 100 | > 100 | > 100 | > 100 | > 100 | > 100 | > 100 | > 100 | – |
| COc1cc(S(=O)(=O)Nc2ccc(-c3csc(N4C(=O)CSC4c4ccccc4)n3)cc2)ccc1Cl (centres undefined) | 65.1 | 39.6 | > 100 | > 100 | > 100 | – | 55.7 | > 100 | > 100 | > 100 | > 100 | > 100 | > 100 | > 100 | > 100 | > 100 | > 100 | > 100 | > 100 | – |
| c1ccc2c(Cc3nnc4sc(SSc5nn6c(Cc7c[nH]c8ccccc78)nnc6s5)nn34)c[nH]c2c1 | > 100 | 33.7 | 78.7 | 88.4 | 24.2 | – | 75.7 | 46.5 | 53.6 | > 100 | 37.2 | > 100 | 50.8 | 53.1 | – | 40 | 29.4 | – | > 100 | – |
| COc1c2cc(C(C)(C)C)cc1Cc1cccc(c1O)Cc1cc(C(C)(C)C)cc(c1OC)Cc1cccc(c1O)Cc1cc(C(C)(C)C)cc(c1OC)Cc1cccc(c1O)C2 | > 100 | > 100 | > 100 | > 100 | > 100 | > 100 | > 100 | > 100 | > 100 | – | > 100 | > 100 | > 100 | > 100 | – | > 100 | > 100 | > 100 | > 100 | – |
| Cc1ccc(SC(=O)N2C(=S)NC(=NC3CCCCC3)C23CCCCC3)cc1 | > 100 | > 100 | > 100 | > 100 | > 100 | > 100 | > 100 | > 100 | > 100 | > 100 | > 100 | > 100 | > 100 | > 100 | – | > 100 | > 100 | > 100 | > 100 | – |
| C[N+](C)(C)c1ncnc2c1ncn2C1CCCCO1 (centres undefined) | > 100 | > 100 | > 100 | > 100 | > 100 | > 100 | > 100 | > 100 | – | > 100 | > 100 | > 100 | – | > 100 | – | > 100 | > 100 | > 100 | > 100 | – |
